Where two headings read alike, the source gives them in different places. Ends that are not written are not given here.
Key:
FPR1, FPR2, FPR3, PMN = type: cell-based, human
[1] = tested on: human polymorphonuclear granulocytes (PMN; neutrophils); type: cell-based; conditions: SARS-CoV-2 omicron B.1.1.529 spike pool peptides, 10 µM, PMN, n=6
FPR1 [2] = molecular target: T1, FPR1 (Homo sapiens, UniProt P21462); type: cell-based
T1 construct: expressed in transfected cells; host or cells: HEK293T
T1 sequence (P21462 1-350): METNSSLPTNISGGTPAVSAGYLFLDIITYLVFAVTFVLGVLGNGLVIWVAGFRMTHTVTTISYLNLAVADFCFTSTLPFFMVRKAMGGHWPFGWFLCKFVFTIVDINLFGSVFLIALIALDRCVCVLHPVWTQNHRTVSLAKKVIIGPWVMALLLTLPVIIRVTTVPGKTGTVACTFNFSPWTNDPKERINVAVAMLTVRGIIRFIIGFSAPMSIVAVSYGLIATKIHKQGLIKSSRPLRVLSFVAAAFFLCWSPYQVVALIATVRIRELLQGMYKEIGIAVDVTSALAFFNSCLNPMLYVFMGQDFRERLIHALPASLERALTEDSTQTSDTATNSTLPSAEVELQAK

FPR2 = molecular target: T2, FPR2 (Homo sapiens, UniProt P25090); experiment: cell-based; type: binding
T2 construct: expressed in transfected cells; host or cells: HEK293T
T2 sequence (P25090 1-351): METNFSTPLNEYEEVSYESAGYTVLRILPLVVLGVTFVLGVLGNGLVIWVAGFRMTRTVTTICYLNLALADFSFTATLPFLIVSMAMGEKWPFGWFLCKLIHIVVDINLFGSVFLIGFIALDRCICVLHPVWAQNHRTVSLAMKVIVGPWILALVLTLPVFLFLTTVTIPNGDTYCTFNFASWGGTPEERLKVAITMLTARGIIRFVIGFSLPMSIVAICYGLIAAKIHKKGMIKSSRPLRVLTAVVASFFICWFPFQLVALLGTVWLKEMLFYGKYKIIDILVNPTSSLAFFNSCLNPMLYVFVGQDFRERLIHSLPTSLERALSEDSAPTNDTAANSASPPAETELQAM

FPR1 [3] = molecular target: T1, FPR1; experiment: biochemical; type: binding
FPR3 = molecular target: T3, FPR3 (Homo sapiens, UniProt P25089); experiment: cell-based; type: binding
T3 construct: expressed in transfected cells; host or cells: HEK293T
T3 sequence (P25089 1-353): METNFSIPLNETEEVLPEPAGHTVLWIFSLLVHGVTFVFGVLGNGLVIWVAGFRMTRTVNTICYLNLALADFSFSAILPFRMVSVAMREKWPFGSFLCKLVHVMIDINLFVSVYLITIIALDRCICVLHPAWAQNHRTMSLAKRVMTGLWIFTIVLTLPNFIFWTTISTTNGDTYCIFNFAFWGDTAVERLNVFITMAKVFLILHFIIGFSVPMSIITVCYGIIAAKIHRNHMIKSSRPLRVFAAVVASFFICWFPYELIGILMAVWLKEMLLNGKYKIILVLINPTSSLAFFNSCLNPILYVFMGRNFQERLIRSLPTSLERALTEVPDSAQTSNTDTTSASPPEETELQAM

FPR1 [4] = molecular target: T1, FPR1; experiment: cell-based; type: binding
[5] = molecular target: T4, Formyl peptide receptor 3 (human, UniProt P25089 1-353)
T4 chain: T3 sequence (P25089 1-353)

[6] = molecular target: T5, Formyl peptide receptor 1 (human, UniProt P21462 1-350)
T5 chain: T1 sequence (P21462 1-350)

[7] = molecular target: T6, Formyl peptide receptor 2 (human, UniProt P25090 1-351)
T6 chain: T2 sequence (P25090 1-351)

[8] = molecular target: T4, Formyl peptide receptor 3
[9] = molecular target: T5, Formyl peptide receptor 1
[10] = molecular target: T6, Formyl peptide receptor 2
[11] = molecular target: T7, Formyl peptide receptor 1 (human, UniProt P21462 1-350); conditions: one partner purified
T7 sequence (looked up): T1 sequence (P21462 1-350)

[12] = molecular target: T8, Formyl peptide receptor 3 (human, UniProt P25089 1-353); conditions: one partner purified
T8 sequence (looked up): T3 sequence (P25089 1-353)

[13] = molecular target: T9, Formyl peptide receptor 2 (human, UniProt P25090 1-351); conditions: one partner purified
T9 sequence (looked up): T2 sequence (P25090 1-351)

[14] = […], it matches an identified peptide or IgG epitope of COVID-19 patients

## LLLQYGSFCTQLKRALTGI
FPR1, FPR2, FPR3, PMN
  Match with activator (region): Receptor: FPR3

## VNHNAQALNTLVKQLSSKFGAISSVLNDIFS
FPR1, FPR2, FPR3, PMN
  Match with activator (region): Receptor: FPR3

## QVKQIYKTPPIKYFGGFNFSQILPDPS
FPR1, FPR2, FPR3, PMN
  Match with activator (region): Receptor: FPR3

## VLPFNDGVYFASIEKSNIIRGWIFGTT
FPR1, FPR2, FPR3, PMN
  Match with activator (region): Receptor: FPR3

## DYSVLYNLAPFFTFKCYGV
FPR1, FPR2, FPR3, PMN; [14]
  Match with activator (region): Receptor: PMN

## DGYFKIYSKHTPIIV
[1]
  non-activators of FPR1 and PMNs: PMNs: non-activators of FPR1 and PMNs
FPR1 [2]
  non-activators of FPR1 and PMNs: FPR1: non-activators of FPR1 and PMNs
FPR1, FPR2, FPR3, PMN
  Match with activator (region): Receptor: FPR2 + FPR3

## QVKQIYKTPPIKYFG
[1]
  significant PMN activators (group of the spike peptide pool screening): significant PMN activators
FPR1, FPR2, FPR3, PMN
  Match with activator (region): Receptor: PMN+ FPR2
FPR1, FPR2, FPR3, PMN; [14]
  Match with activator (region): Receptor: PMN + FPR2

## CC[C@H](C)[C@H](NC(=O)[C@H](Cc1ccc(O)cc1)NC(=O)[C@H](Cc1c[nH]c2ccccc12)NC(=O)[C@@H]1CCCN1C(=O)[C@H](Cc1c[nH]c2ccccc12)NC(=O)[C@H](CCCCN)NC(=O)[C@@H](NC(=O)[C@H](Cc1ccc(O)cc1)NC(=O)[C@H](CCC(N)=O)NC(=O)[C@@H](N)CCC(=O)O)[C@@H](C)CC)C(=O)N[C@@H](Cc1c[nH]c2ccccc12)C(=O)N[C@@H](CC(C)C)C(=O)O [CV7]
FPR2
  Kd: 489 nM
FPR1 [3]; read-out: IC50 in the BRET assay
  IC50: 5100 nM
FPR3
  Kd: 347 nM
FPR1 [4]
  Kd: 14 nM

## NFNFNGLKGTGVLTE
[1]
  non-activators of FPR1 and PMNs: PMNs: non-activators of FPR1 and PMNs
FPR1 [2]
  non-activators of FPR1 and PMNs: FPR1: non-activators of FPR1 and PMNs
FPR1, FPR2, FPR3, PMN; [14]
  Match with activator (region): Receptor: FPR3

## EQYIKWPWYIWL
FPR1, FPR2, FPR3, PMN
  Match with activator (region): Receptor: All FPRs + PMN

## EPEDLPQGFSALEPL
[1]
  significant PMN activators (group of the spike peptide pool screening): significant PMN activators
FPR1, FPR2, FPR3, PMN; [14]
  Match with activator (region): Receptor: PMN

## ITNLCPFDEVFNATR
[1]
  non-activators of FPR1 and PMNs: PMNs: non-activators of FPR1 and PMNs
FPR1 [2]
  non-activators of FPR1 and PMNs: FPR1: non-activators of FPR1 and PMNs
FPR1, FPR2, FPR3, PMN; [14]
  Match with activator (region): Receptor: FPR3

## FHVISGTNGTKRFDN
[1]
  non-activators of FPR1 and PMNs: PMNs: non-activators of FPR1 and PMNs
FPR1 [2]
  non-activators of FPR1 and PMNs: FPR1: non-activators of FPR1 and PMNs

## FERDISTEIYQAGNK
[1]
  non-activators of FPR1 and PMNs: PMNs: non-activators of FPR1 and PMNs
FPR1 [2]
  non-activators of FPR1 and PMNs: FPR1: non-activators of FPR1 and PMNs

## YGSFCTQLKRALTGI
[1]
  non-activators of FPR1 and PMNs: PMNs: non-activators of FPR1 and PMNs
FPR1 [2]
  non-activators of FPR1 and PMNs: FPR1: non-activators of FPR1 and PMNs

## PFLDHKNNKSWMESE
[1]
  non-activators of FPR1 and PMNs: PMNs: non-activators of FPR1 and PMNs
FPR1 [2]
  non-activators of FPR1 and PMNs: FPR1: non-activators of FPR1 and PMNs

## TYGVGHQPYRVVVLSFELL
FPR1, FPR2, FPR3, PMN; [14]
  Match with activator (region): Receptor: PMN + FPR1

## CC[C@H](C)[C@H](NC(=O)[C@H](Cc1ccc(O)cc1)NC(=O)[C@H](CCC(N)=O)NC(=O)[C@@H](N)CCC(=O)O)C(=O)N[C@@H](CCCCN)C(=O)N[C@@H](Cc1c[nH]c2ccccc12)C(=O)N1CCC[C@H]1C(=O)N[C@@H](Cc1c[nH]c2ccccc12)C(=O)N[C@@H](Cc1ccc(O)cc1)C(=O)N[C@H](C(=O)N[C@@H](Cc1c[nH]c2ccccc12)C(=O)N[C@@H](CC(C)C)C(=O)O)C(C)C [CV3]
FPR1 [3]
  IC50: 3800 nM

## VLPFNDGVYFASIEK
[1]
  non-activators of FPR1 and PMNs: PMNs: non-activators of FPR1 and PMNs
FPR1 [2]
  non-activators of FPR1 and PMNs: FPR1: non-activators of FPR1 and PMNs

## KVSGNYNYLYRLFRK
[1]
  non-activators of FPR1 and PMNs: PMNs: non-activators of FPR1 and PMNs
FPR1 [2]
  non-activators of FPR1 and PMNs: FPR1: non-activators of FPR1 and PMNs
FPR1, FPR2, FPR3, PMN; [14]
  Match with activator (region): Receptor: FPR3

## APFFTFKCYGVSPTK
[1]
  non-activators of FPR1 and PMNs: PMNs: non-activators of FPR1 and PMNs
FPR1 [2]
  non-activators of FPR1 and PMNs: FPR1: non-activators of FPR1 and PMNs

## TQTKSHRRARSVASQ
[1]
  non-activators of FPR1 and PMNs: PMNs: non-activators of FPR1 and PMNs
FPR1 [2]
  non-activators of FPR1 and PMNs: FPR1: non-activators of FPR1 and PMNs

## DYSVLYNLAPFFTFKCYGVSPTK
FPR1, FPR2, FPR3, PMN; [14]
  Match with activator (region): Receptor: FPR3

## DLFLPFFSNVTWFHV
[1]
  significant PMN activators (group of the spike peptide pool screening): significant PMN activators
FPR1 [2]
  significant FPR1 activators (group of the spike peptide pool screening): significant FPR1 activators

## PPIKYFGGFNFSQIL
[1]
  non-activators of FPR1 and PMNs: PMNs: non-activators of FPR1 and PMNs
FPR1 [2]
  non-activators of FPR1 and PMNs: FPR1: non-activators of FPR1 and PMNs

## EQYIKWPWYVWL (also: fluorescently labeled) [fluorescently labeled SARS-CoV MPR peptide CV3]
[5]
  Kd: 756 nM
[6]
  Kd: 7.3 nM
[7]
  Kd: 337 nM

## MYVKWPWYVWLL (also: fluorescently labeled) [fluorescently labeled N-terminally truncated HCoV-HKU-1 MPR peptide CV2∗]
[8]
  Kd: > 1000 nM
[9]
  Kd: 66.9 nM
[10]
  Kd: > 1000 nM
[11]
  fold lower binding affinity than the other MPR peptides: ~10 fold
[12]
  fold lower binding affinity than the other MPR peptides: ~10 fold
[13]
  fold lower binding affinity than the other MPR peptides: ~10 fold

## ETYIKWPWWVWL (also: fluorescently labeled) [fluorescently labeled HCoV-229E MPR peptide CV1]
[5]
  Kd: 366 nM
[6]
  Kd: 8.4 nM
[7]
  Kd: 287 nM
